Results reported in patent publication US6656911B2, “Serine protease inhibitors” (Cortech, Inc., priority 1994, dated 2003).

Tests used:
[1] = target: T1, human neutrophil elastase (HNE) (Homo sapiens, UniProt P08246); assay: HNE Ki of CE compounds, tested as described in WO 96/16080; type: biochemical; conditions: read-out: HNE Ki
T1 sequence (P08246 30-267): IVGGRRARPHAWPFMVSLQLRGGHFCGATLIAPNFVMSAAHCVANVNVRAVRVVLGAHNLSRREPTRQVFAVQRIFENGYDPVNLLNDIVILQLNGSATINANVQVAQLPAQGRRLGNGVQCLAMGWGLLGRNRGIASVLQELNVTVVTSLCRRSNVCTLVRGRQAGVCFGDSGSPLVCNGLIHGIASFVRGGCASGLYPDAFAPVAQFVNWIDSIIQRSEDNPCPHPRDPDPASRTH

[2] = Blood level screening after oral dose; type: in vivo, Sprague-Dawley rats; conditions: rat, oral gavage 10 mg/kg; for concentration at 3 h: read-out: Plasma Levels (μM) 3 hr
Method: The inhibitors were dissolved or suspended in polyethylene glycol (PEG), PEG-400 or PEG:H2O:EtOH at a concentration of 10 mg/ml. Unfasted male Sprague-Dawley rats were given an oral dose of this solution by gavage. Rats received 10 mg inhibitor/kg body weight in a volume of 1 ml/kg. After 1,3 or 6 hr., the rats were killed with an overdose of urethane (2.5 g/kg; i.p.) and the blood collected in a heparinized tube via cardiac puncture. Red blood cells were separated from the plasma by centrifugation.
Depending on the inhibitor, one of four organics (ethyl acetate, toluene, isopropyl ether or methyl t-butyl ether) was used to extract the compound from the plasma. Inhibitor concentrations were measured by HPLC or LC/MS analysis.

[3] = male, Sprague-Dawley, plasma, 3 hr

Compound	Ki [1]	other results
Cc1cccc(Cc2nnc(C(=O)C(NC(=O)Cn3c(=O)c(N)cc4ccccc43)C(C)C)o2)c1 (racemic) [CE2228, 3-(R,S)-Amino-quinolin-2-one-N-[1-(2-[5-(3-methylbenzyl)-1,3,4-oxadiazolyl]carbonyl)-2-(R,S)-methylpropyl]acetamide]	40 nM	Plasma Levels (μM) 1 hr ([2]; 1 hr): 0.714 µM; Plasma Levels (μM) 3 hr ([2]; 3 hr): 1.393 µM; Plasma Levels (μM) 6 hr ([2]; 6 hr): 0.409 µM
Cc1cccc(Cc2nc(C(=O)[C@@H](NC(=O)[C@@H]3CCCN3C(=O)[C@@H](NC(=O)OCc3ccccc3)C(C)C)C(C)C)no2)c1 [CE2055, (Benzyloxycarbonyl)-L-valyl-N-[1-(3-[5-(3-methylbenzyl)-1,2,4-oxadiazolyl]carbonyl)-2-(S)-methylpropyl]-L-prolinamide]	–	concentration at 3 h [2, 3]: 0.002 µM
Cc1cccc(Cc2nnc(C(=O)C(NC(=O)CN3C(=O)CCc4ccccc43)C(C)C)o2)c1 (stereo not drawn) [CE2088, 3,4-Dihydro-quinoline-2-one-N-[1-(2-[5-(3-methylbenzyl)-1,3,4-oxadiazolyl]carbonyl)-2-N-methylpropyl]acetamide]	66 nM	concentration at 1 h ([2]; male, Sprague-Dawley, plasma, 1 hr, read-out: Plasma Levels (μM) 1 hr): 0.801 µM; concentration at 3 h [2, 3]: 0.755 µM
CC(=O)N1CC(=O)N(CC(=O)N[C@H](C(=O)c2nnc(Cc3cccc(C)c3)o2)C(C)C)C(=Cc2ccccc2)C1=O [CE2099, 1-Acetyl-3-benzylidene piperazine-2,5-dione-N-[1-(2-[5-(3-methylbenzyl)-1,3,4-oxadiazolyl]carbonyl)-2-(S)-methylpropyl]acetamide]	1.9 nM	concentration at 3 h [2, 3]: 0.042 µM
CC(C)[C@H](NC(=O)[C@@H]1CCCN1C(=O)[C@@H](NC(=O)OCc1ccncc1)C(C)C)C(=O)c1noc(Cc2cccc(C(F)(F)F)c2)n1 [CE2185, 4-Pyridylmethyleneoxycarbonyl-L-valyl-N-[1-(3-[5-(3-trifluoromethylbenzyl)-1,2,4-oxadiazolyl]carbonyl)-2-(S)-methylpropyl]-L-prolinamide]	0.27 nM	–
Cc1cccc(Cc2nnc(C(=O)[C@@H](NC(=O)[C@@H]3CCCN3C(=O)[C@@H](NC(=O)OCc3ccncc3)C(C)C)C(C)C)o2)c1 [CE2186, 4-Pyridylmethyleneoxycarbonyl -L-valyl-N-[1-(2-[5-(3-methylbenzyl)-1,3,4-oxadiazolyl]carbonyl)-2-(S)-methylpropyl]-L-prolinamide]	0.037 nM	–
CC(C)[C@H](NC(=O)CN1C(=O)CN(Cc2ccc3c(c2)OCCO3)C(=O)[C@@H]1Cc1ccccc1)C(=O)c1noc(Cc2cccc(C(F)(F)F)c2)n1 [CE2187]	42 nM	–
CC(C)[C@H](NC(=O)CN1C(=O)CN(Cc2ccccc2)C1=O)C(=O)c1noc(Cc2cccc(C(F)(F)F)c2)n1 [CE2189, 1-Benzyl-2,4-imidazolidinedione-N-[1-(3-[5-(3-trifluoromethylbenzyl)-1,2,4-oxadiazolyl]carbonyl)-2-(S)-methylpropyl]acetamide]	99 nM	–
Cc1cccc(Cc2nnc(C(=O)[C@@H](NC(=O)CN3C(=O)CN(C(=O)OCc4ccccc4)C[C@H]3Cc3ccccc3)C(C)C)o2)c1 [CE2190, [1-Benzyloxycarbonyl-5-(R)-benzylpipeazin-3-one]-N-[1-(2-[5-(3-methylbenzyl)-1,3,4-oxadiazolyl]carbonyl)-2-(S)-methylpropyl]acetamide]	29 nM	–
CC(C)C(NC(=O)CN1C(=O)C(c2ccccc2)N(CCN2CCOCC2)C1=O)C(=O)c1noc(Cc2cccc(C(F)(F)F)c2)n1 [CE2193, 1-(N-Morpholinoethyl)-5-(R,S)-phenyl-2,4-imidazolidindione-N-[1-(3-[5-(3-trifluoromethylbenzyl)-1,2,4-oxadiazolyl]carbonyl)-2-(R,S)-methylpropyl]acetamide]	36 nM	–
Cc1cccc(Cc2nnc(C(=O)[C@@H](NC(=O)CN(C(=O)c3ccc[nH]3)C3CCc4ccccc43)C(C)C)o2)c1 (stereo partly drawn) [CE2195, (Pyrrole-2-carbonyl)-N-[1-(R,S)-indanyl]glycyl-N-[1-(2-[5-(3-methylbenzyl)-1,3,4-oxadiazolyl]carbonyl)-2-(S)-methylpropyl]amide]	10.6 nM	–
Cc1cccc(Cc2nnc(C(=O)C(NC(=O)CN3C(=O)CNCC3Cc3ccccc3)C(C)C)o2)c1 [CE2196, (6-(R)-Benzylpiperazin-2-one)-N-[1-(2-[5-(3-methylbenzyl)-1,3,4-oxadiazolyl]carbonyl)-2-(R,S)-methylpropyl]acetamide]	96 nM	–
Cc1cccc(Cc2nnc(C(=O)[C@@H](NC(=O)CN3C(=O)CN(Cc4ccc5c(c4)OCCO5)C(=O)[C@H]3Cc3ccccc3)C(C)C)o2)c1 [CE2197, 4-[1-(3,4-Ethylenedioxybenzyl)-3-(R)-benzylpiperazine-2,5-dione]-N-[1-(2-[5-(3-methylbenzyl)-1,3,4-oxadiazolyl]carbonyl)-2-(S)-methylpropyl]acetamide]	4.8 nM	–
CC(C)[C@H](NC(=O)CN1C(=O)NC(c2ccccc2)C1=O)C(=O)c1noc(Cc2cccc(C(F)(F)F)c2)n1 (stereo partly drawn) [CE2198, 4-(R,S)-Phenyl-2,5-imidazolidinedione-N-[1-(3-[5-(3-trifluoromethylbenzyl)-1,2,4-oxadiazolyl]carbonyl)-2-(S)-methylpropyl]acetamide]	3.1 nM	–
CC(C)[C@H](NC(=O)CN1C(=O)NC(c2ccc(N(C)C)cc2)C1=O)C(=O)c1noc(Cc2cccc(C(F)(F)F)c2)n1 (stereo partly drawn) [CE2200, [4-(R,S)-(4-Dimethylaminophenyl)]-2,5-imidazolidinedione-N-[1-(3-[5-(3-trifluoromethylbenzyl)-1,2,4-oxadiazolyl]carbonyl)-2-(S)-methylpropyl]acetamide]	13.7 nM	–
Cc1cccc(Cc2nnc(C(=O)[C@@H](NC(=O)[C@@H]3CCCN3C(=O)[C@@H](NC(=O)OC(C)C)C(C)C)C(C)C)o2)c1 [CE2202, Isopropyloxycarbonyl-L-valyl-N-[1-(2-[5-(3-methylbenzyl)-1,3,4-oxadiazolyl]carbonyl)-2-(S)-methylpropyl]-L-prolinamide]	0.12 nM	–
Cc1cccc(Cc2nnc(C(=O)C(NC(=O)CN3CC(=O)NC[C@H]3c3ccccc3)C(C)C)o2)c1 (stereo partly drawn) [CE2208, (2-(R)-Phenylpiperazin-5-one)-N-[1-(2-[5-(3-methylbenzyl)-1,3,4-oxadiazolyl]carbonyl)-2-(R,S)-methylpropyl]acetamide]	40 nM	–
Cc1cccc(Cc2nnc(C(=O)[C@@H](NC(=O)CN(Cc3ccccc3)C(=O)Cc3ccccc3)C(C)C)o2)c1 [CE2210, (N-Benzylcarbonyl)-N-(benzyl)glycyl-N-[1-(2-[5-(3-methylbenzyl)-1,3,4,-oxadiazolyl]carbonyl)-2-(S)-methylpropyl]amide]	22.7 nM	–
Cc1cccc(Cc2nnc(C(=O)[C@@H](NC(=O)CN3CCC(n4c(=O)[nH]c5ccccc54)CC3)C(C)C)o2)c1 [CE2212, 3-[1-(4-Piperidine)]-benzimidazolidin-2-one-N-[1-(2-[5-(3-methylbenzyl)-1,3,4-oxadiazolyl]carbonyl)-2-(S)-methylpropyl]acetamide]	124 nM	–
CC(C)[C@H](NC(=O)CN1Cc2ccccc2NC1=O)C(=O)c1noc(Cc2cccc(C(F)(F)F)c2)n1 [CE2219, 1,4-Quinazolin-2-one-N-[1-(3-[5-(3-trifluoromethylbenzyl)-1,2,4-oxadiazolyl]carbonyl)-2-(S)-methylpropyl]acetamide]	537 nM	–
Cc1cccc(Cc2nc(C(=O)C(NC(=O)[C@@H]3Cc4cccc5c4N3C(=O)[C@@H](N)CC5)C(C)C)no2)c1 (stereo partly drawn) [CE2220, (2S,5S)-5-Amino-1,2,4,5,6,7-hexahydroazepino-[3.2.1]-indole-4-one-carbonyl-N-[1-(3-[5-(3-methylbenzyl)-1,2,4-oxadiazolyl]carbonyl)-2-(R,S)-methylpropyl]amide]	52 nM	–
Cc1cccc(Cc2nc(C(=O)C(NC(=O)CN3C(=O)C(N)N=C(c4ccccc4)c4ccccc43)C(C)C)no2)c1 [CE2221, (R,S)-3-Amino-2-oxo-5-phenyl-1,4-benzodiazepine-N-[1-(3-[5-(3-methylbenzyl)-1,2,4-oxadiazolyl]carbonyl)-2-(R,S)-methylpropyl]acetamide]	34 nM	–
CC(C)[C@H](NC(=O)Cn1c(-c2ccc(F)cc2)ccc(N)c1=O)C(=O)c1nnc(Cc2ccc3c(c2)OCO3)o1 [CE2261]	0.36 nM	–
Cc1cccc(Cc2nnc(C(=O)[C@@H](NC(=O)Cn3c(-c4cccs4)ncc(N)c3=O)C(C)C)o2)c1 [CE2262, 2-[5-Amino-6-oxo-2-thiophenyl-1,6-dihydro-1-pyrimidinyl]-N-[1-(2-[5-(3-methylbenzyl)-1,3,4-oxadiazolyl]carbonyl)-2-(S)-methylpropyl]acetamide]	0.42 nM	–
Cc1cccc(Cc2nnc(C(=O)[C@@H](NC(=O)Cn3c(-c4cccnc4)ncc(N)c3=O)C(C)C)o2)c1 [CE2263, 2-[5-Amino-6-oxo-2-(3-pyridyl)-1,6-dihydro-1-pyrimidinyl]-N-[1-(2-[5-(3-methylbenzyl)-1,3,4-oxadiazolyl]carbonyl)-2-(S)-methylpropyl]acetamide]	0.67 nM	–
(Benzyloxycarbonyl)-L-valyl-N-[1-(2-[5-(1-napthylenyl)-1,3,4-xadiazolyl]carbonyl)-2-(S)-methylpropyl]-L-prolinamide [CE2124]	0.033 nM	–
(R,S)-3-Amino-2-oxo-5-phenyl-1,4-(6-2′-chlorobenzodiazepine)-N-[1-(2-[5-phenyl-1,3,4-oxadiazolyl]carbonyl)-2-(R,S)-propyl]acetamide [CE2211]	348 nM	–
